Laboratory results as given in EP0774455A1, “Excitatory amino acid receptor antagonists” (ELI LILLY AND COMPANY, priority 1995, dated 1997).
Blank lines part the entries; values can stand above or below the compound they belong to.

What was measured:
[1] = test system: mouse; experiment: mouse elevated plus maze model; assay type: in vivo
[2] = test system: mouse; experiment: mouse conditioned active avoidance response model; assay type: in vivo
Description: (Pfeiffer & Jenney, Ann. N.Y. Acad. Sci., 66:[…], 1957; Maffii, J. Pharm. Pharmacol., 11: 129-139, 1959; Cook & Weidley, Ann; N.Y. Acad. Sci., 66: […], 1957; Janke, Handbook of Experimental Pharmacology, Vol. 55/I, New York: Plenum Press, 1978).

[3] = test system: metabotropic glutamate receptors; experiment: selective displacement of 1S,3R-ACPD-sensitive [3H]glutamate binding to rat brain cell membranes (crude membranes of rat forebrain)
Method: The binding of [^3H]glutamate was conducted with crude membranes of rat forebrain as described by Schoepp and True. Schoepp and True, Neuroscience Lett., 145, 100-104 (1992) and Wright et al., J. Neurochemisty 63: 938-945 (1994).

SMILES: Cc1cccc(C[C@@H]2C[C@H]3[C@H](C(=O)O)[C@H]3[C@]2(N)C(=O)O)c1 (racemic) [Example 4, 1SR,2SR,3SR,5RS,6SR-Amino-3-((3-methyl)benzyl)bicyclo[3.1.0]hexane-2,6-dicarboxylic acid]
anxiolytic effect [1]: anxiolytic effect

SMILES: N[C@@]1(C(=O)O)[C@H](Cc2ccc(F)c(F)c2F)C[C@H]2[C@H](C(=O)O)[C@H]21 (racemic) [Example 25, 1SR,2SR,3SR,5RS,6SR-2-Amino-3-((2,3,4-trifluoro)-benzyl)bicyclo[3.1.0]hexane-2,6-dicarboxylic acid]
neuroleptic properties [2]: neuroleptic properties

IC50 [3]: 320 nM
SMILES: NC1(C(=O)O)C(CCCc2ccccc2)CC2C(C(=O)O)C21 (stereo not drawn) [Example 1, Mixture of 1SR,2SR,3RS,5RS,6SR-2-amino-3-(3-phenylpropyl)bicyclo[3.1.0]-hexane-2,6-dicarboxylic acid and 1SR, 2RS, 3RS, 5RS, 6SR-2-amino-3-(3-phenylpropyl)bicyclo[3.1.0]hexane-2,6-dicarboxylic acid]
